Experiments:
Format in all cases: cell-based
Settings in all cases: 48 h
[1] = system: LNCaP cells; experiment: MTT cytotoxicity assay, LNCaP (p53 pos)
Protocol: (§1) The synthesized compounds were tested for their ability to block the proliferation of the selected model cell lines: LNCaP (p53+), PC3 (p53-), HCT^wt (p53+), and HCT^−/− (p53-) cells. The assay was carried out using the standard MTT (3-(4,5-dimethylthiazol-2-yl)2,5-diphenyl tetrazolium bromide) assay based on the modified approach reported by Ferrari and colleagues. […] Differences in IC50 values against these cell lines were used to assess the selectivity of the compounds.
(§2) Model cell lines were purchased from the in stock collection of the N.N. Blokhin Russian Cancer Research Center (RAMS). Cells were accurately maintained in the recommended media, supplemented with 10% heat-inactivated FBS (Invitrogen) and 2 mmol/L L-glutamine (Invitrogen).
(§3) First, 4000 cells per well were plated out in 140 µL of DMEM (with 10% FBS) in 96-well plates and incubated in 5% CO2 for 24 h at 37 °C without treatment. […] The cells were treated for 48 h with […] (eight dilutions) concentrations of the substances (each in triplicate) or doxorubicin (0.3 nM–600 nM, eight dilutions) as a control substance. After the incubation, 15 µL of MTT solution in PBS (5 mg/mL) was added, and the cells were incubated for 2 h, followed by removal of the media and addition of 120 µL of DMSO. […] Cell survival rates were determined by the comparison of optical density with the corresponding untreated control cell culture. Dose-dependent curves and the corresponding IC50 values were calculated using “GraphPad Prism 6” software (GraphPad Software, Inc., San Diego, CA, USA).

[2] = system: HCT^wt cells; experiment: MTT cytotoxicity assay, HCT^wt (p53 pos)
Protocol: as §1, §2, §3

[3] = system: PC3 cells; experiment: MTT cytotoxicity assay, PC3 (p53 neg)
Protocol: as §1, §2, §3

[4] = system: HCT^−/− cells; experiment: MTT cytotoxicity assay, HCT^−/− (p53 neg)
Protocol: as §1, §2, §3

SMILES | IC50 [1] [µM] | IC50 [2] [µM] | IC50 [3] [µM] | IC50 [4] [µM]
CC(c1ccccc1)N1C(=O)C2(NC1=S)C(c1ccccc1Cl)CN(C)C21C(=O)Nc2ccc(Br)cc21 (mixture of isomers) [Compound 62] | > 100 | > 100 | > 100 | > 100
CC(c1ccccc1)N1C(=O)C2(NC1=S)C(c1cccc(Cl)c1)CN(C)C21C(=O)Nc2ccc(Br)cc21 (mixture of isomers) [Compound 63] | 3.4 ± 1.5 | 8 ± 2.5 | 8.8 ± 3.1 | > 100
CC(c1ccccc1)N1C(=O)C2(NC1=S)C(c1ccccc1Cl)CN(C)C21C(=O)Nc2ccc(Cl)cc21 (mixture of isomers) [Compound 64] | > 100 | 24 ± 6.7 | > 100 | > 100
CC(c1ccccc1)N1C(=O)C2(NC1=S)C(c1ccc(Cl)cc1)CN(C)C21C(=O)Nc2ccc(Br)cc21 (mixture of isomers) [Compound 65] | > 100 | > 100 | > 100 | > 100
CC(c1ccccc1)N1C(=O)C2(NC1=S)C(c1ccc(Cl)cc1)CN(C)C21C(=O)Nc2ccc(Cl)cc21 (mixture of isomers) [Compound 66] | > 100 | > 100 | > 100 | > 100
CN1C[C@H](c2ccccc2)[C@]2(NC(=S)N(c3ccccc3)C2=O)[C@]12C(=O)Nc1ccc(Br)cc12 (racemic) [Compound 5] | 2.2 ± 0.8 | 10.5 ± 2.3 | 4.6 ± 2.5 | 12.5 ± 3.2
CN1C[C@H](c2ccccc2Br)[C@]2(NC(=S)N(c3ccccc3)C2=O)[C@]12C(=O)Nc1ccccc12 (racemic) [Compound 8] | > 100 | > 100 | > 100 | > 100
CN1C[C@H](c2ccccc2Cl)[C@]2(NC(=S)N(c3ccccc3)C2=O)[C@]12C(=O)Nc1ccccc12 (racemic) [Compound 9] | > 100 | 21.7 ± 5.8 | > 100 | 23.1 ± 6.6
CN1C[C@H](c2ccccc2Cl)[C@]2(NC(=S)N(c3ccccc3)C2=O)[C@]12C(=O)Nc1ccc(Br)cc12 (racemic) [Compound 10] | > 100 | – | > 100 | –
CN1C[C@H](c2ccccc2Cl)[C@]2(NC(=S)N(c3ccccc3)C2=O)[C@]12C(=O)Nc1ccc(Cl)cc12 (racemic) [Compound 11] | > 100 | > 100 | > 100 | > 100
CN1C[C@H](c2ccc(Cl)cc2)[C@]2(NC(=S)N(c3ccccc3)C2=O)[C@]12C(=O)Nc1ccc(Cl)cc12 (racemic) [Compound 12] | > 100 | > 100 | > 100 | > 100
CN1C[C@H](c2cccc(Cl)c2)[C@]2(NC(=S)N(c3ccccc3)C2=O)[C@]12C(=O)Nc1ccccc12 (racemic) [Compound 14] | > 100 | – | > 100 | –
CN1C[C@H](c2cccc(Cl)c2)[C@]2(NC(=S)N(c3ccccc3)C2=O)[C@]12C(=O)Nc1ccc(Br)cc12 (racemic) [Compound 15] | > 100 | > 100 | > 100 | > 100
CN1C[C@H](c2ccc(Cl)c(Cl)c2)[C@]2(NC(=S)N(c3ccccc3)C2=O)[C@]12C(=O)Nc1ccc(Br)cc12 (racemic) [Compound 16] | > 100 | 7.6 ± 1.6 | > 100 | 8.8 ± 3.5
CN1C[C@H](c2ccccn2)[C@]2(NC(=S)N(c3ccccc3)C2=O)[C@]12C(=O)Nc1ccc(Br)cc12 (racemic) [Compound 17] | > 100 | 5.6 ± 2.3 | > 100 | 7.6 ± 3.2
CN1C[C@H](c2ccccn2)[C@]2(NC(=S)N(c3ccccc3)C2=O)[C@]12C(=O)Nc1ccc(Cl)cc12 (racemic) [Compound 18] | 2.1 ± 0.3 | 60.1 ± 8.6 | 8.2 ± 3.5 | > 100

SMILES | IC50 [1] [µM] | IC50 [2] [µM] | IC50 [3] [µM] | IC50 [4] [µM]
CN1C[C@H](c2ccncc2)[C@]2(NC(=S)N(c3ccccc3)C2=O)[C@]12C(=O)Nc1ccccc12 (racemic) [Compound 19] | > 100 | > 100 | > 100 | > 100
CN1C[C@H](c2ccncc2)[C@]2(NC(=S)N(c3ccccc3)C2=O)[C@]12C(=O)Nc1ccc(Br)cc12 (racemic) [Compound 20] | > 100 | > 100 | > 100 | > 100
CN1C[C@H](c2ccncc2)[C@]2(NC(=S)N(c3ccccc3)C2=O)[C@]12C(=O)Nc1ccc(Cl)cc12 (racemic) [Compound 21] | > 100 | 50.5 ± 10.2 | > 100 | > 100
CN1C[C@H](c2cccc(Cl)c2)[C@]2(NC(=S)N(c3ccccc3)C2=O)[C@]12C(=O)Nc1ccc(Cl)cc12 (racemic) [Compound 23] | > 100 | 50.7 ± 8.9 | > 100 | 50.7 ± 12.6
CN1C[C@H](c2cccc(C=O)c2)[C@]2(NC(=S)N(c3ccccc3)C2=O)[C@]12C(=O)Nc1ccc(Cl)cc12 (racemic) [Compound 24] | > 100 | > 100 | > 100 | > 100
CN1C[C@H](C2CCCCC2)[C@]2(NC(=S)N(c3ccccc3)C2=O)[C@]12C(=O)Nc1ccccc12 (racemic) [Compound 25] | > 100 | – | > 100 | –
CN1C[C@H](C2CCCCC2)[C@]2(NC(=S)N(c3ccccc3)C2=O)[C@]12C(=O)Nc1ccc(Br)cc12 (racemic) [Compound 26] | > 100 | – | > 100 | –
CCOc1ccc(N2C(=O)[C@]3(NC2=S)[C@@H](c2ccc(Cl)c(Cl)c2)CN(C)[C@@]32C(=O)Nc3ccccc32)cc1 (racemic) [Compound 27] | > 100 | > 100 | > 100 | > 100
CCOc1ccc(N2C(=O)[C@]3(NC2=S)[C@@H](c2ccc(Cl)cc2)CN(C)[C@@]32C(=O)Nc3ccccc32)cc1 (racemic) [Compound 28] | > 100 | > 100 | > 100 | > 100
COc1ccc([C@H]2CN(C)[C@@]3(C(=O)Nc4ccc(Br)cc43)[C@@]23NC(=S)N(c2ccc(F)c(Cl)c2)C3=O)cc1OC (racemic) [Compound 45] | > 100 | – | > 100 | –
COc1ccc(N2C(=O)[C@]3(NC2=S)[C@@H](c2cccc(Cl)c2)CN(C)[C@@]32C(=O)Nc3ccccc32)cc1Cl (racemic) [Compound 58] | > 100 | – | > 100 | –
COc1ccc(N2C(=O)[C@]3(NC2=S)[C@@H](c2cccc(Cl)c2)CN(C)[C@@]32C(=O)Nc3ccc(Br)cc32)cc1Cl (racemic) [Compound 59] | > 50 | – | > 50 | –
CCOc1ccc([C@H]2CN(C)[C@@]3(C(=O)Nc4ccccc43)[C@@]23NC(=S)N(c2ccc(F)cc2)C3=O)cc1 (racemic) [Compound 60] | > 100 | – | > 100 | –
CCOc1ccc([C@H]2CN(C)[C@@]3(C(=O)Nc4ccc(Br)cc43)[C@@]23NC(=S)N(c2ccc(F)cc2)C3=O)cc1 (racemic) [Compound 61] | > 100 | – | > 100 | –
C=CCN1C(=O)[C@]2(NC1=S)[C@@H](c1ccccn1)CN(C)[C@@]21C(=O)Nc2ccccc21 (racemic) [Compound 67] | > 50 | – | > 50 | –
C=CCN1C(=O)[C@]2(NC1=S)[C@@H](c1cccc(Cl)c1)CN(C)[C@@]21C(=O)Nc2ccccc21 (racemic) [Compound 68] | > 50 | – | > 50 | –

— paper PMC9919490, “Synthesis and Biological Evaluation of Novel Dispiro-Indolinones with Anticancer Activity” (Molecules, 2023)
